Several values for one entry are separate records, joined by “and”; a condition that tells them apart may be missing. Equal entries are not always repeated. Toxic doses and inconclusive results are not listed.
System: P388 leukemia ip, CD2F1 mice, survival T/C
Test: NCI In Vivo Anticancer Drug Screen. Data for tumor model P388 Leukemia (intraperitoneal) in CD2F1 (CDF1) mice
Conditions: endpoint: median survival time, higher = longer survival
Method in brief: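 Mice carrying the transplanted tumor received test compound or vehicle. Survival was recorded in each group, and the value is the treated-group measurement divided by that of the vehicle-treated control group.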

[1] = dose: 50.0 mg/kg/injection, schedule: Q01DX009 (ip), vehicle: Klucel (hydroxypropylcellulose) (HPC)
[2] = dose: 100.0 mg/kg/injection, schedule: Q01DX009 (ip), vehicle: Klucel (hydroxypropylcellulose) (HPC)
[3] = dose: 200.0 mg/kg/injection, schedule: Q01DX009 (ip), vehicle: Klucel (hydroxypropylcellulose) (HPC)
[4] = dose: 50.0 mg/kg/injection, schedule: Q01DX009 (ip), vehicle: saline with Tween-80
[5] = dose: 100.0 mg/kg/injection, schedule: Q01DX009 (ip), vehicle: saline with Tween-80
[6] = dose: 200.0 mg/kg/injection, schedule: Q01DX009 (ip), vehicle: saline with Tween-80

CCCCCCCCCCN(CCCCCCCCCC)C1CC(OC2CC(O)(C(C)O)Cc3c(O)c4c(c(O)c32)C(=O)c2c(OC)cccc2C4=O)OC(C)C1O (stereo not given)
T/C (dose: 4.7 mg/kg/injection, schedule: Q04DX003 (ip), vehicle: water): 99 % of control | T/C (dose: 9.4 mg/kg/injection, schedule: Q04DX003 (ip), vehicle: water): 99 % of control | T/C (dose: 18.8 mg/kg/injection, schedule: Q04DX003 (ip), vehicle: water): 101 % of control | T/C (dose: 37.5 mg/kg/injection, schedule: Q04DX003 (ip), vehicle: water): 110 % of control | T/C (dose: 75.0 mg/kg/injection, schedule: Q04DX003 (ip), vehicle: water): 101 % of control

CCC1(O)CC2CN(CCc3c([nH]c4ccccc34)C(C(=O)OC)(c3cc4c(cc3OC)N(C)C3C(O)(C(=O)NCCSSCCNC(=O)C5(O)C(O)C6(CC)C=CCN7CCC8(c9cc(C%10(C(=O)OC)CC%11CN(CCc%12c%10[nH]c%10ccccc%12%10)CC(O)(CC)C%11)c(OC)cc9N(C)C58)C76)C(O)C5(CC)C=CCN6CCC43C65)C2)C1 (stereo not given)
T/C (dose: 0.1 mg/kg/injection, schedule: Q01DX009 (ip), vehicle: saline): 166 % of control | T/C (dose: 0.19 mg/kg/injection, schedule: Q04DX003 (ip), vehicle: saline): 151 % of control | T/C (dose: 0.2 mg/kg/injection, schedule: Q01DX009 (ip), vehicle: saline): 202 % of control | T/C (dose: 0.31 mg/kg/injection, schedule: Q04DX003 (ip), vehicle: saline): 170 % of control | T/C (dose: 0.38 mg/kg/injection, schedule: Q04DX003 (ip), vehicle: saline): 183 % of control | T/C (dose: 0.39 mg/kg/injection, schedule: Q04DX003 (ip), vehicle: saline): 186 % of control | T/C (dose: 0.4 mg/kg/injection, schedule: Q01DX009 (ip), vehicle: saline): 227 % of control | T/C (dose: 0.63 mg/kg/injection, schedule: Q04DX003 (ip), vehicle: saline): 190 % of control | T/C (dose: 0.7 mg/kg/injection, schedule: Q04DX003 (ip), vehicle: saline): 161 % of control | T/C (dose: 0.75 mg/kg/injection, schedule: Q04DX003 (ip), vehicle: saline): 209 % of control and 228 % of control | T/C (dose: 1.0 mg/kg/injection, schedule: Q04DX003 (ip), vehicle: saline): 212 % of control | T/C (dose: 1.25 mg/kg/injection, schedule: Q04DX003 (ip), vehicle: saline): 208 % of control | T/C (dose: 1.6 mg/kg/injection, schedule: Q04DX003 (ip), vehicle: saline): 231 % of control | T/C (dose: 2.4 mg/kg/injection, schedule: Q04DX003 (ip), vehicle: saline): 119 % of control | T/C (dose: 2.5 mg/kg/injection, schedule: Q04DX003 (ip), vehicle: saline): 236 % of control

NC(CO)(CO)CO
T/C (dose: 1600.0 mg/kg/injection, schedule: Q01DX007 (ip), vehicle: saline): 121 % of control

CC(=O)OC(C)C[N+](C)(C)C (stereo not given)
T/C (dose: 100.0 mg/kg/injection, schedule: Q04DX002 (ip), vehicle: saline): 102 % of control | T/C (dose: 200.0 mg/kg/injection, schedule: Q04DX002 (ip), vehicle: saline): 102 % of control | T/C (dose: 400.0 mg/kg/injection, schedule: Q04DX002 (ip), vehicle: saline): 94 % of control

NC(Cc1c[nH]c2ccccc12)C(=O)O (stereo not given)
T/C [1]: 99 % of control | T/C [2]: 107 % of control | T/C [3]: 104 % of control

O=C(Nc1cc(NC(=O)n2nnc3ccccc32)c(Br)cc1Br)n1nnc2ccccc21
T/C [1]: 91 % of control | T/C [2]: 89 % of control | T/C [3]: 97 % of control

COc1nc(NC2OC(COC(C)=O)C(OC(C)=O)C(OC(C)=O)C2OC(C)=O)c(N=CC=Nc2c(NC3OC(COC(C)=O)C(OC(C)=O)C(OC(C)=O)C3OC(C)=O)nc(OC)n(C)c2=O)c(=O)n1C (stereo not given)
T/C (dose: 60.0 mg/kg/injection, schedule: Q01DX005 (ip), vehicle: saline with Tween-80): 86 % of control | T/C (dose: 120.0 mg/kg/injection, schedule: Q01DX005 (ip), vehicle: saline with Tween-80): 92 % of control | T/C (dose: 240.0 mg/kg/injection, schedule: Q01DX005 (ip), vehicle: saline with Tween-80): 94 % of control

N=c1c2ccccc2nc2n1CCCCC2
T/C (dose: 25.0 mg/kg/injection, schedule: Q04DX003 (ip), vehicle: saline): 103 % of control | T/C (dose: 50.0 mg/kg/injection, schedule: Q04DX003 (ip), vehicle: saline): 95 % of control

CSCCC(N)C(=O)NCCS(=O)(=O)O (stereo not given)
T/C (dose: 60.0 mg/kg/injection, schedule: Q01DX005 (ip), vehicle: saline): 105 % of control | T/C (dose: 120.0 mg/kg/injection, schedule: Q01DX005 (ip), vehicle: saline): 109 % of control | T/C (dose: 240.0 mg/kg/injection, schedule: Q01DX005 (ip), vehicle: saline): 102 % of control

NC(CC(=O)NO)C(=O)O (stereo not given)
T/C (dose: 200.0 mg/kg/injection, schedule: Q01DX009 (ip), vehicle: saline): 110 % of control | T/C (dose: 400.0 mg/kg/injection, schedule: Q01DX009 (ip), vehicle: saline): 120 % of control

CCC(O)C(O)(c1ccccc1)c1nc2ccccc2s1 (stereo not given)
T/C (dose: 50.0 mg/kg/injection, schedule: Q01DX005 (ip), vehicle: Klucel (hydroxypropylcellulose) (HPC)): 102 % of control | T/C (dose: 100.0 mg/kg/injection, schedule: Q01DX005 (ip), vehicle: Klucel (hydroxypropylcellulose) (HPC)): 102 % of control | T/C (dose: 200.0 mg/kg/injection, schedule: Q01DX005 (ip), vehicle: Klucel (hydroxypropylcellulose) (HPC)): 99 % of control

CCCCCCCCCCCCCCCCCC[N+](C)(C)c1nc(Cl)nc(Cl)n1
T/C (dose: 25.0 mg/kg/injection, schedule: Q01DX009 (ip), vehicle: saline): 100 % of control | T/C (dose: 50.0 mg/kg/injection, schedule: Q01DX009 (ip), vehicle: saline): 91 % of control

O=Cc1cc(/C=N/Nc2ccc([N+](=O)[O-])cc2[N+](=O)[O-])nc2[nH]c(=O)ccc12
T/C (dose: 100.0 mg/kg/injection, schedule: Q04DX002 (ip), vehicle: saline with Tween-80): 97 % of control | T/C (dose: 200.0 mg/kg/injection, schedule: Q04DX002 (ip), vehicle: saline with Tween-80): 104 % of control | T/C (dose: 400.0 mg/kg/injection, schedule: Q04DX002 (ip), vehicle: saline with Tween-80): 95 % of control

N=C(N)c1ccc(Nc2ccc(-c3cc4ccc(C(=N)N)cc4[nH]3)cc2)cc1
T/C (dose: 1.87 mg/kg/injection, schedule: Q01DX005 (ip), vehicle: Klucel (hydroxypropylcellulose) (HPC)): 174 % of control | T/C (dose: 7.5 mg/kg/injection, schedule: Q01DX005 (ip), vehicle: Klucel (hydroxypropylcellulose) (HPC)): 166 % of control and 194 % of control

O=C1C=C(N2C3C4CCC(C4)C32)C(=O)C=C1c1ccccc1 (stereo not given)
T/C (dose: 100.0 mg/kg/injection, schedule: Q01DX001 (ip), vehicle: other): 102 % of control | T/C (dose: 200.0 mg/kg/injection, schedule: Q01DX001 (ip), vehicle: other): 109 % of control | T/C (dose: 400.0 mg/kg/injection, schedule: Q01DX001 (ip), vehicle: other): 111 % of control

CCN(CC)C(=O)c1c(Cl)c(Cl)c(Cl)c(Cl)c1C(=O)O
T/C [4]: 112 % of control | T/C [5]: 96 % of control | T/C [6]: 96 % of control | T/C (dose: 400.0 mg/kg/injection, schedule: Q01DX009 (ip), vehicle: saline with Tween-80): 102 % of control

O=C1c2ccc(Cl)cc2OCCC1CN1CCCCC1 (stereo not given)
T/C (dose: 100.0 mg/kg/injection, schedule: Q04DX003 (ip), vehicle: saline): 100 % of control | T/C (dose: 200.0 mg/kg/injection, schedule: Q04DX003 (ip), vehicle: saline): 103 % of control

CC(C)=CC1CC(=O)OC1(C)C (stereo not given)
T/C (dose: 12.5 mg/kg/injection, schedule: Q04DX002 (ip), vehicle: saline with Tween-80): 98 % of control | T/C (dose: 25.0 mg/kg/injection, schedule: Q04DX002 (ip), vehicle: saline with Tween-80): 104 % of control | T/C (dose: 50.0 mg/kg/injection, schedule: Q04DX002 (ip), vehicle: saline with Tween-80): 100 % of control

CNC(=O)Nc1ccnc2ccc3c(ncn3C(=O)NC)c12
T/C (dose: 100.0 mg/kg/injection, schedule: Q01DX001 (ip), vehicle: saline with Tween-80): 104 % of control | T/C (dose: 200.0 mg/kg/injection, schedule: Q01DX001 (ip), vehicle: saline with Tween-80): 98 % of control

CC(c1ccccc1)N1C(=O)CSC1=S (stereo not given)
T/C (dose: 25.0 mg/kg/injection, schedule: Q01DX009 (ip), vehicle: saline with Tween-80): 100 % of control | T/C [4]: 100 % of control | T/C [5]: 100 % of control | T/C [6]: 100 % of control

O=C(c1ccco1)C(O)NC(=S)c1ccc(Cl)cc1 (stereo not given)
T/C [4]: 113 % of control and 117 % of control | T/C [5]: 116 % of control

From PubChem BioAssay AID330 (DTP/NCI, 2004)
